# Target: T1, SARS-CoV-2 Papain-like protease (PLpro) (Severe acute respiratory syndrome coronavirus 2, UniProt P0DTD1)
# T1 construct: gene rep; natural full-length PLpro (nsp3) made in infected VeroE6 cells, crude lysate; mature chain nsp3 of replicase polyprotein 1a / 1ab
# Assay: fluorogenic Pun74-R110 peptide cleavage in lysates of infected, inhibitor-pretreated VeroE6 cells
# Assay type: biochemical
# Details: unreliable (tentative; one experiment in duplicate); inhibitor given to live cells 2 h before infection (0.01 MOI, 24 h, 37 °C); PLpro read in lysate with 50 nM Pun74-R110, 5 mM DTT, pH 7.4, room temp
smiles,measurement,value
Cc1ccc(N)cc1C(=O)N[C@H](C)c1cccc2ccccc12 [GRL0617],IC50,38.3 µM

# — publication PMC11670956, “A cell-based Papain-like Protease (PLpro) activity assay for rapid detection of active SARS-CoV-2 infections and antivirals” (PLOS ONE, 2024)
